Among the data in PubChem BioAssay (NCI) are GI50 and TGI values, retold here.

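Interpolation was linear, between the two tested concentrations surrounding the appropriate level; five concentrations were tested over 48 hours in 96-well plates. Here, GI50 denotes the concentration required for 50% inhibition of growth. Definition used: TGI = concentration required for complete inhibition of growth.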

Test in all cases: DTP human tumour cell line panel, 48 h
For test [1], the system named is 786-0 renal.
For test [2], the system named is A549 NSCLC.
The test system of test [3] is EKVX NSCLC.
For test [4], the system named is HCT-15 colon.
Test [5] concerns HL-60(TB) leukemia.
The subject of test [6] is MOLT-4 leukemia.
The test system of test [7] is SF-295 CNS.
Test [8] relates to CCRF-CEM leukemia.
In test [9] the test system is SR leukemia.

As for `CN(C)CCCC1(c2ccc(F)cc2)OCc2cc(-c3csc4ccccc34)ccc21` (centres undefined), the GI50 is 1.84 µM in test [1]; 1.82 µM in [2]; 1.51 µM in test [3]; 1.64 µM in test [4]; 1.77 µM in [5]; 1.79 µM in test [6]. Moreover, the GI50 in test [7] is 1.64 µM. Besides, the TGI in [1] came out at 3.63 µM; in test [2] it was 3.66 µM; in test [3], 2.89 µM; in test [4], 3.07 µM; in test [5], 3.7 µM; in [6], 3.52 µM. This compound displayed a TGI in test [7] of 3.04 µM.

Consider `COC(=O)N/N=C(\C)c1sc(-c2nc(C)c(/C(C)=N/NC(=O)OC)s2)nc1C`, for which the concentration for total growth inhibition (TGI) in test [1], in test [2], in [8], in test [3], in test [4] and in [5] was more than 100 µM in each case. The TGI was more than 100 µM in [6], more than 100 µM in [7] and 45.7 µM in test [9].

In the case of `O=[N+]([O-])c1ccc(/C=C/c2ccc(/C=C/c3ccc([N+](=O)[O-])cc3[N+](=O)[O-])cc2)c([N+](=O)[O-])c1`, the total growth inhibition concentration (TGI) in test [1], in test [2], in [8], in [3], in [4] and in test [5] was more than 100 µM throughout. In addition, the TGI in test [6] and in test [7] was more than 100 µM in each case.

As to `CN(C)c1ccc(/C=C2\CCc3ccccc3C2=O)cc1Br`, the concentration for total growth inhibition (TGI) in [1] is more than 100 µM; in test [2], more than 100 µM; in test [8], more than 100 µM; in test [3] it was more than 100 µM; in test [4], more than 100 µM; in test [5], 58.5 µM. The TGI in test [6], in test [7] and in test [9] was more than 100 µM each time.

Turning to `CNS(=O)(=O)NNS(=O)(=O)c1ccc(C)cc1`, the TGI in test [1], in test [2], in [8], in [3], in test [5] and in [6] was more than 100 µM throughout. The total growth inhibition concentration (TGI) in [7] and in [9] was more than 100 µM in each case.

As for `Nc1ccccc1C(=O)/C=C/c1ccccc1O`, the TGI is more than 100 µM in test [1]; more than 100 µM in test [2]; more than 100 µM in test [8]; more than 100 µM in test [3]; 58.8 µM in test [5]; more than 100 µM in test [6]. The TGI in test [7] was more than 100 µM.

In the case of `CCN1CCN(CC(=O)Nc2nc3ccc(NCc4ccc(Br)cc4)cc3s2)CC1`, the GI50 was 1.85 µM in test [1], 3.02 µM in test [3], 1.95 µM in test [5] and 2.42 µM in test [9]. In addition, the concentration for total growth inhibition (TGI) was 3.5 µM in [1], more than 100 µM in [3], 3.81 µM in test [5] and more than 100 µM in test [9].

Consider `CN(C)CCNC(=O)c1cccc2c1nc(-c1cccnc1)c1ccccc12`, for which the TGI in test [1] is 24.6 µM; in test [2], 18.3 µM; in test [8], 43.5 µM; in test [3] it was 18.8 µM; in [4], 20.1 µM; in test [5], 28.8 µM. The concentration for total growth inhibition (TGI) turned out to be 6.32 µM in test [6] and 20.1 µM in test [7].

As for `CC1(C)CC(=O)C(C(=O)Nc2cccs2)=C(O)C1`, the concentration for total growth inhibition (TGI) is more than 100 µM in [1]; more than 100 µM in test [2]; 95.3 µM in [8]; more than 100 µM in test [3]; more than 100 µM in [4]; 57.7 µM in [5]. Further, the values for the total growth inhibition concentration (TGI) in test [6], in [7] and in [9] were 88.1 µM, more than 100 µM and more than 100 µM, respectively.

In the case of `NS(=O)(=O)c1cc2c(cc1Cl)NCNS2(=O)=O`, the TGI in test [1], in [2], in test [8], in test [3], in test [4] and in test [5] was more than 100 µM each time. Further, the TGI in test [6], in [7] and in [9] was more than 100 µM throughout.

On to `CCC12C=C(C(=O)OC)N3c4ccccc4C4CCN(CCC1)C2C43` (centres undefined), for which the total growth inhibition concentration (TGI) in test [1] is 60.9 µM; in test [2], more than 100 µM; in test [8], more than 100 µM; in [3], more than 100 µM; in test [4], more than 100 µM; in test [5], more than 100 µM. Moreover, the concentration for total growth inhibition (TGI) in [6] and in [7] was more than 100 µM throughout.

Regarding `Cc1ccccc1NC(=O)CC(=O)NNCC(=O)Nc1nnc(-c2ccccc2)s1`, the TGI is more than 100 µM in [1]; more than 100 µM in test [2]; more than 100 µM in test [3]; more than 100 µM in test [4]; 85.3 µM in test [5]; more than 100 µM in [6]. Besides, the TGI in [7] and in test [9] was more than 100 µM throughout.

Turning to `CC(C)(C)C1CC[C@H]2c3c([nH]c4ccccc34)[C@H]3C(=O)N(c4ccc(F)cc4)C(=O)[C@H]3[C@H]2C1` (some centres undefined), the TGI is 23.5 µM in [1]; 26.1 µM in [2]; 35.5 µM in [8]; 36.9 µM in test [3]; more than 100 µM in test [4]; 27.8 µM in test [6]. Further, in [7], the concentration for total growth inhibition (TGI) came to 28.3 µM.

Regarding `N#CC1(CCCCl)CCCCC1`, the total growth inhibition concentration (TGI) in test [1], in test [2], in [8], in test [3], in test [4] and in [5] was more than 100 µM throughout. The TGI in [6], in [7] and in [9] was more than 100 µM each time.

With `O=C1c2ccccc2N1C(=O)c1ccccc1[N+](=O)[O-]`, the TGI in test [1], in test [2], in [8], in test [3], in [4] and in test [6] was more than 100 µM each time. The TGI in test [9] is more than 100 µM.

In the case of `O=C(/C=C(\[O-])c1ccccc1)CCCCCCC(=O)/C=C(\[O-])c1ccccc1.O=C(/C=C(\[O-])c1ccccc1)CCCCCCC(=O)/C=C(\[O-])c1ccccc1.O=C(/C=C(\[O-])c1ccccc1)CCCCCCC(=O)/C=C(\[O-])c1ccccc1.[Y+3].[Y+3]`, the GI50 is 21.7 µM in test [1]; more than 50 µM in test [2]; more than 50 µM in [3]; 14 µM in test [5]; 26.9 µM in [6]; more than 50 µM in [7]. The TGI in test [1], in [2], in [3], in test [5], in test [6] and in test [7] was more than 50 µM throughout.

With `O/N=C1/C(=C/c2ccc(OCc3ccccc3)cc2)CCCC1C(NO)c1ccc(OCc2ccccc2)cc1` (centres undefined), the TGI in test [1], in [2], in test [8], in test [3], in [4] and in test [5] was more than 100 µM in each case. For the same compound, the TGI in test [6] and in test [9] was more than 100 µM each time.

As to `CCCCCNC(=O)CCCCCCCCCCCNC(=O)CCCCCCCCCCN1C=CC(=CC=C2C=CC(=O)C=C2)C=C1`, the concentration for total growth inhibition (TGI) was more than 100 µM in test [1]; more than 100 µM in test [2]; more than 100 µM in [8]; more than 100 µM in test [3]; more than 100 µM in [4]; 8.83 µM in [5]. The TGI in [6], in test [7] and in test [9] was more than 100 µM throughout.

For `O=C1Nc2ccc(Cl)cc2/C1=N/c1nc(-c2ccc(Cl)cc2)cs1`, the GI50 in test [1] is 1.46 µM; in test [8], 2.28 µM; in [6], 1.61 µM; in test [9] it was 2.74 µM. The total growth inhibition concentration (TGI) in test [1] is 3.7 µM; in test [8] it was more than 100 µM; in test [6], more than 100 µM; in test [9], more than 100 µM.

Turning to `CC(=O)NC(CCCNC(=O)OCc1ccccc1)C(=O)NCc1ccccc1` (centres undefined), the TGI in [1], in [2], in [8], in [3], in test [4] and in [6] was more than 100 µM each time. In test [7], this compound had a TGI of more than 100 µM.

Take `Cc1ccccc1NC(=O)C1C(=O)N(c2ccccc2C)C(=O)/C1=N\NC(N)=O` (centres undefined): the concentration for total growth inhibition (TGI) in test [1], in test [2], in test [8], in test [3], in test [4] and in [5] was more than 100 µM throughout. For the same compound, the TGI in [6], in test [7] and in test [9] was more than 100 µM each time.

Turning to `CN1S(=O)(=O)N(C)P12(N=P(CP(=NP13(N(C)S(=O)(=O)N1C)N(C)S(=O)(=O)N3C)(c1ccccc1)c1ccccc1)(c1ccccc1)c1ccccc1)N(C)S(=O)(=O)N2C`, the concentration for total growth inhibition (TGI) in [1], in [2], in [8], in test [3], in test [4] and in [5] was more than 100 µM in each case. Besides, the TGI in test [6] is more than 100 µM.

Turning to `CN(C)c1ccc(/C=c2/sc3nc(=O)c(-c4ccccc4NC(=O)C(F)(F)F)nn3c2=O)cc1`, the total growth inhibition concentration (TGI) in test [1], in [2], in test [8], in test [3], in test [6] and in [7] was more than 100 µM each time. The compound also had a total growth inhibition concentration (TGI) in test [9] of more than 100 µM.

With `CCCCC(C(=O)C(=O)Nc1ccccc1CC)C(=O)C(C)C` (centres undefined), the concentration for total growth inhibition (TGI) in test [1], in [2], in test [8], in test [3], in test [4] and in test [5] was more than 100 µM each time. Moreover, the total growth inhibition concentration (TGI) in [6] and in test [7] was more than 100 µM in each case.

For `O=C1C[C@@H]2OCC=C3C[N+]4([O-])CC[C@]56c7ccccc7N1[C@H]5[C@H]2[C@H]3C[C@@H]64` (some centres undefined), the GI50 in [1], in test [2], in [8], in test [3], in test [4] and in [5] was more than 100 µM throughout. The GI50 in test [6], in test [7] and in test [9] was more than 100 µM throughout. Further, the concentration for total growth inhibition (TGI) in test [1], in test [2], in [8], in test [3], in test [4] and in test [5] was more than 100 µM each time. In addition, the TGI in [6], in test [7] and in [9] was more than 100 µM in each case.

Turning to `O=C(CC1(O)C(=O)Nc2c(Cl)ccc(Cl)c21)c1ccc(Cl)cc1` (centres undefined), the TGI in test [1] was 32.1 µM; in test [2], more than 100 µM; in test [3], more than 100 µM; in test [4] it was more than 100 µM; in [7] it was 83.4 µM.

With `O=C1c2ccccc2C2(O)N(c3ccccc3)C(=S)N(c3ccccc3)C12O` (centres undefined), the total growth inhibition concentration (TGI) in test [1], in test [2], in test [8], in test [3], in [4] and in test [6] was more than 100 µM each time. Also, in test [7], the concentration for total growth inhibition (TGI) is more than 100 µM.

Take `CC(C)(C)c1ccc(OCCOCCOc2ccc(C(C)(C)C)cc2S(N)(=O)=O)c(S(N)(=O)=O)c1`: the TGI in test [1], in test [2], in [8], in test [3], in test [4] and in [5] was more than 100 µM throughout. Further, the TGI in test [6] was 28.7 µM; in [7], more than 100 µM.

For the compound `N#Cc1c(CC(=O)O)cc(=O)n2c1[nH]c1ccccc12`, the TGI in test [1], in [2], in test [3], in test [4], in [5] and in test [6] was more than 100 µM throughout. For the same compound, the TGI in test [7] and in [9] was more than 100 µM throughout.
